Molecular target: T1, ΔF508-CFTR (Homo sapiens, UniProt P13569, DEL508-508)
T1 construct: expressed in transfected cells
Test: Membrane potential optical (FRET/VIPR) assay, identification of potentiator compounds
Type: cell-based
Details: Table 3, assay not given; for % Activity: relative efficacy
Procedure, shortened: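 NIH3T3 mouse fibroblasts stably expressing ΔF508-CFTR, temperature-corrected 24 h at 27° C., read on VIPR by FRET between CC2-DMPE and DiSBAC2(3). Potentiators identified in a double-addition format, first adding chloride-free (gluconate) medium with or without compound.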

T1 sequence (P13569 with tags, fused parts or gaps DEL508-508): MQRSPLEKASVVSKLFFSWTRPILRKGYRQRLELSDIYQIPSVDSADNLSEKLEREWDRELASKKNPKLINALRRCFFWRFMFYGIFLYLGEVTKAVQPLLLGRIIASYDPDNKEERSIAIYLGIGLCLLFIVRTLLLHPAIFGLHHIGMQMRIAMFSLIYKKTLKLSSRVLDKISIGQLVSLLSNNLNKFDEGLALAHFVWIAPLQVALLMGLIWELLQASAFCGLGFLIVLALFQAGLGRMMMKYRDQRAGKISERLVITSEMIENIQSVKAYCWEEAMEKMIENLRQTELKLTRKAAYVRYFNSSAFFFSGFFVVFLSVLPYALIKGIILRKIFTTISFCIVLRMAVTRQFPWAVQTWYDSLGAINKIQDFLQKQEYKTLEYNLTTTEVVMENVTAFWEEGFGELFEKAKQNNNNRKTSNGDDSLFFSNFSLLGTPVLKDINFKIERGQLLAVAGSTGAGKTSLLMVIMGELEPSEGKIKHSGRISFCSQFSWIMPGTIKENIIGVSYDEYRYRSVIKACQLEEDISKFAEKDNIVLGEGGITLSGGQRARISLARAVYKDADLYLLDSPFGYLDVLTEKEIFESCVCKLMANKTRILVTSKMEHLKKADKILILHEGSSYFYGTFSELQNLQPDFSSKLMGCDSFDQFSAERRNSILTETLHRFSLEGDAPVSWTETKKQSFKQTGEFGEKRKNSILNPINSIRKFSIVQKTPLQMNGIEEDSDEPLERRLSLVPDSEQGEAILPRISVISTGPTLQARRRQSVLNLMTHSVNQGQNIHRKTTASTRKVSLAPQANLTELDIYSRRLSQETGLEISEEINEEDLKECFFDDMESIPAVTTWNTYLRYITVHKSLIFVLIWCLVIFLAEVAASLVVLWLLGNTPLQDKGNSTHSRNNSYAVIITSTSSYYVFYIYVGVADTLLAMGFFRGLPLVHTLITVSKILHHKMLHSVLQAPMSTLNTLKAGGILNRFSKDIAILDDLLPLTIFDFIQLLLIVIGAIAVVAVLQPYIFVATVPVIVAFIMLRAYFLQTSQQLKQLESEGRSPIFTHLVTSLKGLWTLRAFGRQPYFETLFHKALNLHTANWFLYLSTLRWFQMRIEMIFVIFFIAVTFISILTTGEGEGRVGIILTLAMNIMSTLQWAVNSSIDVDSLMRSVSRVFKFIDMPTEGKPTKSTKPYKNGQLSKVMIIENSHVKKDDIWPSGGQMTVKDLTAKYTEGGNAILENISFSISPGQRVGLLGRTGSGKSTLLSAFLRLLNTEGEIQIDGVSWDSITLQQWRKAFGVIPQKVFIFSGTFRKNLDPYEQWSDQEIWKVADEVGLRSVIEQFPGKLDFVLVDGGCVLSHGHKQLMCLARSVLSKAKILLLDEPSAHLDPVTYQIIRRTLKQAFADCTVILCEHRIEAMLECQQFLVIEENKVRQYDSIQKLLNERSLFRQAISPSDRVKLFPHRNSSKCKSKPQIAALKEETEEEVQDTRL

## Cc1ccc(S(=O)(=O)Nc2ccccc2NC(=O)c2c[nH]c3ccccc3c2=O)cc1 [Compound 398, 4-oxo-N-[2-(p-tolylsulfonylamino)phenyl]-1H-quinoline-3-carboxamide]
  EC50: 10 to 25 µM
  % Activity: ++ (between 25% to 100%)

## CNc1ccc(C(C)C)c(NC(=O)c2c[nH]c3ccccc3c2=O)c1 [Compound 399, N-(2-isopropyl-5-methylamino-phenyl)-4-oxo-1H-quinoline-3-carboxamide]
  EC50: < 10 µM
  % Activity: ++ (between 25% to 100%)

## O=C(Nc1ccc(N2CCOCC2)nc1)c1c[nH]c2ccccc2c1=O [Compound 400, N-(6-morpholino-3-pyridyl)-4-oxo-1H-quinoline-3-carboxamide]
  EC50: 25 to 60 µM
  % Activity: + (<25%)

## Cc1cccc(-c2ccccc2NC(=O)c2c[nH]c3ccccc3c2=O)c1C [Compound 401, N-[2-(2,3-dimethylphenyl)phenyl]-4-oxo-1H-quinoline-3-carboxamide]
  EC50: < 10 µM
  % Activity: ++ (between 25% to 100%)

## O=C(Nc1ccc(-c2ccccc2)cn1)c1c[nH]c2ccccc2c1=O [Compound 402, 4-oxo-N-(5-phenyl-2-pyridyl)-1H-quinoline-3-carboxamide]
  EC50: < 10 µM
  % Activity: + (<25%)

## CC1(c2cc(F)c(NC(=O)c3cnc4ccccc4c3O)cc2O)CCCCCCC1 [Compound 403, N-[2-fluoro-5-hydroxy-4-(1-methylcyclooctyl)-phenyl]-4-hydroxy-quinoline-3-carboxamide]
  EC50: < 10 µM
  % Activity: ++ (between 25% to 100%)

## COc1cccc(OC)c1-c1cc2cc[nH]c2cc1NC(=O)c1c[nH]c2ccccc2c1=O [Compound 404, N-[5-(2,6-dimethoxyphenyl)-1H-indol-6-yl]-4-oxo-1H-quinoline-3-carboxamide]
  EC50: < 10 µM
  % Activity: ++ (between 25% to 100%)

## O=C(Nc1ccc(Cl)cc1)c1c[nH]c2ccccc2c1=O [Compound 405, N-(4-chlorophenyl)-4-oxo-1H-quinoline-3-carboxamide]
  EC50: < 10 µM
  % Activity: ++ (between 25% to 100%)

## CN(c1ccc(F)cc1)S(=O)(=O)c1ccc2[nH]cc(C(=O)Nc3cc4[nH]ccc4cc3C(C)(C)C)c(=O)c2c1 [Compound 406, 6-[(4-fluorophenyl)-methyl-sulfamoyl]-4-oxo-N-(5-tert-butyl-1H-indol-6-yl)-1H-quinoline-3-carboxamide]
  EC50: < 10 µM
  % Activity: ++ (between 25% to 100%)

## CC(C)(C)c1cc(F)c(NC(=O)c2c[nH]c3cccc(O)c3c2=O)cc1O [Compound 407, N-(2-fluoro-5-hydroxy-4-tert-butyl-phenyl)-5-hydroxy-4-oxo-1H-quinoline-3-carboxamide]
  EC50: < 10 µM
  % Activity: ++ (between 25% to 100%)

## COc1cccc(NC(=O)c2c[nH]c3ccccc3c2=O)c1 [Compound 408, N-(3-methoxyphenyl)-4-oxo-1H-quinoline-3-carboxamide]
  EC50: < 10 µM
  % Activity: ++ (between 25% to 100%)

## CCc1ccc(N(C)C)cc1NC(=O)c1c[nH]c2ccccc2c1=O [Compound 409, N-(5-dimethylamino-2-ethyl-phenyl)-4-oxo-1H-quinoline-3-carboxamide]
  EC50: < 10 µM
  % Activity: ++ (between 25% to 100%)

## O=C(Nc1ccccc1-c1ccc(Oc2ccccc2)cc1)c1c[nH]c2ccccc2c1=O [Compound 410, 4-oxo-N-[2-(4-phenoxyphenyl)phenyl]-1H-quinoline-3-carboxamide]
  EC50: < 10 µM
  % Activity: +++ (>100%)

## O=C(Nc1ccccc1)c1c[nH]c2cc(Cl)ccc2c1=O [Compound 411, 7-chloro-4-oxo-N-phenyl-1H-quinoline-3-carboxamide]
  EC50: < 10 µM
  % Activity: ++ (between 25% to 100%)

## CCOC(=O)c1c(NC(=O)c2c[nH]c3ccccc3c2=O)ccc2cc[nH]c12 [Compound 412, 6-[(4-oxo-1H-quinolin-3-yl)carbonylamino]-1H-indole-7-carboxylic acid ethyl ester]
  EC50: < 10 µM
  % Activity: ++ (between 25% to 100%)

## O=C(Nc1ccccc1Oc1ccccc1)c1c[nH]c2ccccc2c1=O [Compound 413, 4-oxo-N-(2-phenoxyphenyl)-1H-quinoline-3-carboxamide]
  EC50: < 10 µM
  % Activity: ++ (between 25% to 100%)

## O=C(Nc1ccc2nc[nH]c2c1)c1c[nH]c2ccccc2c1=O [Compound 414, N-(3H-benzoimidazol-5-yl)-4-oxo-1H-quinoline-3-carboxamide]
  EC50: 25 to 60 µM
  % Activity: + (<25%)

## COc1c(C(=O)Nc2ccc(C(C)(C)C)c(O)c2)cnc2ccccc12 [Compound 415, N-(3-Hydroxy-4-tert-butyl-phenyl)-4-methoxy-quinoline-3-carboxamide]
  EC50: < 10 µM
  % Activity: ++ (between 25% to 100%)

## CCCOC(=O)NCC(C)(C)c1ccc(NC(=O)c2c[nH]c3ccccc3c2=O)cc1 [Compound 416, [2-methyl-2-[4-[(4-oxo-1H-quinolin-3-yl)carbonylamino]phenyl]-propyl]aminoformic acid propyl ester]
  EC50: < 10 µM
  % Activity: ++ (between 25% to 100%)

## O=C(Nc1ccccc1-c1csc2ccccc12)c1c[nH]c2ccccc2c1=O [Compound 417, N-(2-(benzo[b]thiophen-3-yl)phenyl)-1,4-dihydro-4-oxoquinoline-3-carboxamide]
  EC50: < 10 µM
  % Activity: ++ (between 25% to 100%)

## CN(C)c1cccc(NC(=O)c2c[nH]c3ccccc3c2=O)c1 [Compound 418, N-(3-dimethylaminophenyl)-4-oxo-1H-quinoline-3-carboxamide]
  EC50: 10 to 25 µM
  % Activity: ++ (between 25% to 100%)

## CC(=O)Nc1cccc(NC(=O)c2c[nH]c3ccccc3c2=O)c1 [Compound 419, N-(3-acetylaminophenyl)-4-oxo-1H-quinoline-3-carboxamide]
  EC50: 25 to 60 µM
  % Activity: + (<25%)

## CCOC(=O)C(C)(C)c1ccc(NC(=O)c2c[nH]c3ccccc3c2=O)cc1 [Compound 420, 2-methyl-2-[4-[(4-oxo-1H-quinolin-3-yl)carbonylamino]phenyl]-propanoic acid ethyl ester]
  EC50: < 10 µM
  % Activity: ++ (between 25% to 100%)

## COc1cc(NC(=O)c2c[nH]c3ccccc3c2=O)c(C(F)(F)F)cc1C(C)(C)C [Compound 421, N-[5-methoxy-4-tert-butyl-2-(trifluoromethyl)phenyl]-4-oxo-1H-quinoline-3-carboxamide]
  EC50: < 10 µM
  % Activity: ++ (between 25% to 100%)

## CCOCCc1c[nH]c2cc(NC(=O)c3c[nH]c4ccccc4c3=O)ccc12 [Compound 423, N-[3-(2-ethoxyethyl)-1H-indol-6-yl]-4-oxo-1H-quinoline-3-carboxamide]
  EC50: < 10 µM
  % Activity: ++ (between 25% to 100%)

## O=C(Nc1ccccc1-c1ccc(Cl)cc1)c1c[nH]c2ccccc2c1=O [Compound 424, N-[2-(4-chlorophenyl)phenyl]-4-oxo-1H-quinoline-3-carboxamide]
  EC50: < 10 µM
  % Activity: ++ (between 25% to 100%)

## CC(C)c1ccc(NC(=O)c2c[nH]c3ccccc3c2=O)cc1 [Compound 425, N-(4-isopropylphenyl)-4-oxo-1H-quinoline-3-carboxamide]
  % Activity: ++ (between 25% to 100%)

## CC(C)(C)c1cc(Cl)c(O)cc1NC(=O)c1c[nH]c2ccccc2c1=O [Compound 426, N-(4-chloro-5-hydroxy-2-tert-butyl-phenyl)-4-oxo-1H-quinoline-3-carboxamide]
  EC50: < 10 µM
  % Activity: ++ (between 25% to 100%)

## CC(C)(C)OC(=O)N1CCc2c(cccc2NC(=O)c2c[nH]c3ccccc3c2=O)C1 [Compound 427, 5-[(4-oxo-1H-quinolin-3-yl)carbonylamino]-1,2,3,4-tetrahydroisoquinoline-2-carboxylic acid tert-butyl ester]
  EC50: < 10 µM
  % Activity: ++ (between 25% to 100%)

## CC(C)(C)c1ccc(NC(=O)c2c[nH]c3ccccc3c2=O)cc1O [Compound 428, N-(3-hydroxy-4-tert-butyl-phenyl)-4-oxo-1H-quinoline-3-carboxamide]
  EC50: < 10 µM
  % Activity: ++ (between 25% to 100%)

## Nc1cc(NC(=O)c2c[nH]c3ccccc3c2=O)cc(C(F)(F)F)c1 [Compound 429, N-[3-amino-5-(trifluoromethyl)phenyl]-4-oxo-1H-quinoline-3-carboxamide]
  EC50: < 10 µM
  % Activity: ++ (between 25% to 100%)

## Cc1cccc(C(C)C)c1NC(=O)c1c[nH]c2ccccc2c1=O [Compound 430, N-(2-isopropyl-6-methyl-phenyl)-4-oxo-1H-quinoline-3-carboxamide]
  EC50: < 10 µM
  % Activity: ++ (between 25% to 100%)

## Nc1cccc(NC(=O)c2c[nH]c3ccccc3c2=O)c1 [Compound 431, N-(3-aminophenyl)-4-oxo-1H-quinoline-3-carboxamide]
  EC50: 10 to 25 µM
  % Activity: ++ (between 25% to 100%)

## CC(C)c1ccc(-c2ccccc2NC(=O)c2c[nH]c3ccccc3c2=O)cc1 [Compound 432, N-[2-(4-isopropylphenyl)phenyl]-4-oxo-1H-quinoline-3-carboxamide]
  EC50: < 10 µM
  % Activity: ++ (between 25% to 100%)

— patent publication US8614327B2 (Vertex Pharmaceuticals Incorporated, priority 2004, dated 2013)
